Experimental data: ChEMBL document CHEMBL6114985, “From Dyrk1A inhibitors to a novel class of antiviral agents: Targeting Enterovirus EV-A71 with 2-aryl-substituted thiophene scaffolds” (Eur J Med Chem, 2025)
pEC50, pIC50: −log10 of the molar value. Active and inactive are the calls of the source. The calls are words filed in the database; no cut-off is given here.

Experiments:
Enterovirus A71 [1] = assay: Antiviral activity against Enterovirus A71 TW/2231/98 infected in human RD cells assessed as reduction in cytopathic effect incubated for 3 days; type: functional, organism-based; details: Enterovirus A, TW/2231/98, RD, 72 h
Human rhinovirus sp. = assay: Antiviral activity against Human rhinovirus 71803 assessed as reduction in viral replication; type: functional, organism-based
[2] = Selectivity index, ratio of CC50 for human RD cells to EC50 for antiviral activity against enterovirus A71 TW/2231/98 infected in human RD cells; type: toxicity, cell-based; details: read-out: Ratio CC50/EC50
Enterovirus A71 [3] = assay: Antiviral activity against Enterovirus A71 4798 assessed as reduction in viral replication; type: functional, organism-based; details: Enterovirus A
Enterovirus A71 [4] = assay: Antiviral activity against Enterovirus A71 2231 assessed as reduction in viral replication; type: functional, organism-based; details: Enterovirus A
Coxsackievirus = assay: Antiviral activity against Coxsackievirus assessed as reduction in viral replication; type: functional, organism-based
enterovirus D68 [5] = assay: Antiviral activity against Enterovirus D68 KY 18953 assessed as reduction in viral replication; type: functional, organism-based; details: Enterovirus D
Influenza A virus = assay: Antiviral activity against influenza A virus assessed as reduction in viral replication; type: functional, organism-based
[6] = Cytotoxicity against human RD cells assessed as reduction in cell growth incubated for 3 days by MTT assay; type: toxicity, cell-based; details: time 3 day
enterovirus D68 [7] = assay: Antiviral activity against Enterovirus D68 2795 assessed as reduction in viral replication; type: functional, organism-based; details: Enterovirus D
[8] = biological target: T1, Dual specificity tyrosine-phosphorylation-regulated kinase 1A (Homo sapiens, UniProt Q13627); assay: Inhibition of DYRK1A (unknown origin) at 25 uM incubated for 1 hr relative to control
Human adenovirus sp. = assay: microbe, parasite or virus in culture; details: A549
[9] = Cytotoxicity against human A549 cells infected with Herpes Simplexvirus; type: toxicity, cell-based; details: A549 cells infected with herpes simplex virus
[10] = Metabolic stability in mouse liver microsome assessed as half life incubated for 120 mins by HPLC-MS/MS; type: ADME; details: liver microsomes
[11] = biological target: T1, Dual specificity tyrosine-phosphorylation-regulated kinase 1A; assay: Inhibition of DYRK1A (unknown origin)
Enterovirus A71 [12] = assay: Antiviral activity against Enterovirus A71 TW/2231/98 infected in human RD cells assessed as effect on viral replication incubated for 3 to 5 days by crystal violet staining based plaque reduction assay; type: functional, organism-based; details: time 3-5 day
Enterovirus A71 [13] = assay: Antiviral activity against Enterovirus A71 TW/2231/98 infected in human RD cells assessed as reduction in viral RNA level at 10 uM preincubated with cells at 1 hr followed by compound addition and measured after 9 hrs post infection by time of addition based RT-qPCR analysis; type: functional, organism-based
in vitro = details: human, A549 cells
[14] = Metabolic stability in human liver microsome assessed as intrinsic clearance incubated for 120 mins by HPLC-MS/MS; type: ADME; details: liver microsomes, read-out: CLH
Enterovirus A71 [15] = assay: Antiviral activity against Enterovirus A71 TW/2231/98 infected in human RD cells assessed as inhibition of viral plaque formation at 2.5 uM incubated for 3 to 5 days by crystal violet staining based plaque reduction assay relative to control; type: functional; details: Enterovirus A, TW/2231/98, RD, time 3-5 day
Enterovirus A71 [16] = assay: Antiviral activity against Enterovirus A71 TW/2231/98 infected in human RD cells assessed as effect on viral RNA level at 10 uM preincubated with cells at 1 hr followed by compound addition and measured at 0 to 3 hrs post infection by time of addition based RT-qPCR analysis; type: functional, organism-based
Herpes Simplexvirus [17] = assay: Antiviral activity against Herpes Simplexvirus infected in human A549 cells assessed as inhibition of viral replication at 0.95 uM relative to control; type: functional
[18] = Stability in mouse plasma assessed as half life by HPLC-MS/MS; type: ADME, cell-free
Enterovirus A71 [19] = assay: Antiviral activity against Enterovirus A71 TW/2231/98 infected in human RD cells assessed as effect on viral titer at 10 uM preincubated with cells at 1 hr followed by compound addition and measured at 0 to 3 hrs post infection by time of addition based plaque assay; type: functional, organism-based
Enterovirus A71 [20] = assay: Antiviral activity against Enterovirus A71 TW/2231/98 infected in human RD cells assessed as inhibition of viral plaque formation at 5 uM incubated for 3 to 5 days by crystal violet staining based plaque reduction assay relative to control; type: functional; details: Enterovirus A, TW/2231/98, RD, time 3-5 day
Enterovirus A71 [21] = assay: Antiviral activity against Enterovirus A71 TW/2231/98 infected in human RD cells assessed as reduction in viral protein level at 10 uM preincubated with cells at 1 hr followed by compound addition and measured after 9 hrs post infection by time of addition based immunoblotting analysis; type: functional, organism-based
[22] = Stability in human plasma assessed as half life by HPLC-MS/MS; type: ADME, cell-free
[23] = Metabolic stability in mouse liver microsome assessed as intrinsic clearance incubated for 120 mins by HPLC-MS/MS; type: ADME; details: liver microsomes, read-out: CLH
[24] = Lipophilicity, logD of compound by UPLC-MS analysis; type: physicochemical; details: octanol/water
Enterovirus A71 [25] = assay: Antiviral activity against Enterovirus A71 TW/2231/98 infected in human RD cells assessed as reduction in viral titer at 10 uM preincubated with cells at 1 hr followed by compound addition and measured after 9 hrs post infection by time of addition based plaque assay; type: functional, organism-based
[26] = Cytotoxicity against human A549 cells infected with Human adenovirus; type: toxicity, cell-based
Herpes Simplexvirus [27] = assay: microbe, parasite or virus in culture; details: A549
Enterovirus A71 [28] = assay: Antiviral activity against Enterovirus A71 TW/2231/98 infected in human RD cells assessed as effect on viral protein level at 10 uM preincubated with cells at 1 hr followed by compound addition and measured at 0 to 3 hrs post infection by time of addition based immunoblotting analysis; type: functional, organism-based
[29] = Metabolic stability in human liver microsome assessed as half life incubated for 120 mins by HPLC-MS/MS; type: ADME; details: liver microsomes
Enterovirus A71 [30] = assay: Antiviral activity against Enterovirus A71 TW/2231/98 infected in human RD cells assessed as inhibition of viral plaque formation at 1.25 uM incubated for 3 to 5 days by crystal violet staining based plaque reduction assay relative to control; type: functional; details: Enterovirus A, TW/2231/98, RD, time 3-5 day
[31] = Plasma protein binding in mouse by rapid equilibrium dialysis based HPLC-MS/MS analysis; type: ADME, cell-free; details: read-out: PPB (converted)
[32] = Plasma protein binding in human by rapid equilibrium dialysis based HPLC-MS/MS analysis; type: ADME, cell-free; details: read-out: PPB (converted)
Enterovirus A71 [33] = assay: Antiviral activity against Enterovirus A71 TW/2231/98 infected in human RD cells assessed as inhibition of viral plaque formation at 45 uM incubated for 3 to 5 days by crystal violet staining based plaque reduction assay relative to control; type: functional; details: Enterovirus A, TW/2231/98, RD, time 3-5 day

| Structure (SMILES) | pEC50 (Enterovirus A71 [1]) | pEC50 (Human rhinovirus sp.) | selectivity ratio [2] | pEC50 (Enterovirus A71 [3]) | pEC50 (Enterovirus A71 [4]) | pEC50 (Coxsackievirus) | pEC50 (enterovirus D68 [5]) | pEC50 (Influenza A virus) | CC50 at 72 h [6] | pEC50 (enterovirus D68 [7]) | inhibition [8] | half-life [10] | microsomal CLint [14] | half-life [18] | half-life [22] | microsomal CLint [23] | logD [24] | half-life [29] | other results |
| --- | --- | --- | --- | --- | --- | --- | --- | --- | --- | --- | --- | --- | --- | --- | --- | --- | --- | --- | --- |
| O=C(Nc1cncc(-c2cccs2)c1)c1c(F)cc(F)cc1F | 5.27 | 5.12 | 8.4 | 5.14 | 5.27 | 5.00 | 5.27 | < 5.00 | 45.3 µM | 5.30 | – | – | – | – | – | – | – | – | – |
| COc1ccc(F)c(C(=O)Nc2cc(-c3cccs3)ccn2)c1 | 5.62 | – | 14 | – | – | – | – | – | 33.5 µM | – | 4% | – | – | – | – | – | – | – | – |
| COc1ccc(F)c(C(=O)Nc2cncc(-c3cc(-c4cccnc4)cs3)c2)c1 | 5.36 | 5.38 | 2.9 | 5.38 | 5.36 | 5.55 | 5.47 | < 5.00 | 12.8 µM | 5.33 | 95% | 14 min | 27 µL/min/mg | > 240 min | > 240 min | 104 µL/min/mg | 3.44 | 55 min | pEC50 (Human adenovirus sp.): < 5.00; CC50 [9]: > 15 µM; pIC50 [11]: 7.42; Activity (Enterovirus A71 [12]): Active; Activity (Enterovirus A71 [13]): Active; selectivity ratio (in vitro): > 15; inhibition at 2.5 µM (Enterovirus A71 [15]): ~60%; Activity (Enterovirus A71 [16]): inactive; inhibition at 0.95 µM (Herpes Simplexvirus [17]): 50%; Activity (Enterovirus A71 [19]): inactive; inhibition at 5 µM (Enterovirus A71 [20]): 80%; Activity (Enterovirus A71 [21]): Active; Activity (Enterovirus A71 [25]): Active; CC50 [26]: > 10 µM; pEC50 (Herpes Simplexvirus [27]): 6.00; Activity (Enterovirus A71 [28]): inactive; inhibition at 1.25 µM (Enterovirus A71 [30]): 20% |
| COc1ccc(F)c(C(=O)Nc2cncc(-c3cccs3)c2)c1 | 5.37 | 5.32 | 17.6 | 5.26 | 5.37 | 5.41 | 5.46 | < 5.00 | 75.7 µM | 5.44 | 0% | 11 min | 44 µL/min/mg | > 240 min | > 240 min | 127 µL/min/mg | 3.52 | 31.5 min | fraction unbound [31]: 0.038; fraction unbound [32]: 0.0165 |
| COc1ccc(F)c(C(=O)Nc2cncc(-c3cc(-c4cccnc4)cs3)c2)c1Cl | 5.28 | 5.16 | > 19.2 | 5.40 | 5.28 | < 5.00 | 5.43 | – | > 100 µM | 5.29 | 93% | 10 min | 56 µL/min/mg | > 240 min | > 240 min | 137 µL/min/mg | 3.22 | 25 min | fraction unbound [32]: 0.0029 |
| COc1ccc2c(c1)[nH]c1c(C)nccc12 [HARMINE] | – | – | – | – | – | – | – | – | – | – | – | – | – | – | – | – | – | – | pEC50 (Human adenovirus sp.): 5.24; inhibition at 45 µM (Enterovirus A71 [33]): 40%; CC50 [9]: > 20 µM; CC50 [26]: > 20 µM; pEC50 (Herpes Simplexvirus [27]): 5.48 |
| COc1ccc(F)c(C(=O)Nc2cncc(-c3cc(-c4cccnc4)cs3)c2)c1F | 5.59 | – | 7.7 | – | – | – | – | – | 20 µM | – | 81% | – | – | – | – | – | – | – | – |
| COc1ccc(Cl)c(C(=O)Nc2cncc(-c3cc(-c4cccnc4)cs3)c2)c1F | 5.24 | – | > 17.5 | – | – | – | – | – | > 100 µM | – | 95% | – | – | – | – | – | – | – | – |
